Source: US10391070B2, “Compositions and methods for treating neurological diseases or injury” (MUSC FOUNDATION FOR RESEARCH DEVELOPMENT, priority 2012, dated 2019)
Several values for one entry are separate records, joined by “and”; a condition that tells them apart may be missing. Identical values can stand only once.

Tests used:
[1] = Chronic toxicity evaluation in mice (blood count and chemistry); format: in vivo, mouse; conditions: for blood count and chemistry parameters versus vehicle / weight loss, signs of pain or distress: mice, 50 mg/kg i.p. daily, three weeks
Experimental: Adult (12 weeks of age) mice (Balb/cByJ, 17-20 g, Jackson Laboratory), were housed in temperature-controlled conditions under a light/dark photocycle with food and water supplied ad libitum. Mice were divided randomly into three groups. The first group (n=3) was injected i.p. with compound 2q at 50 mg/kg dissolved in sterile 5% DMSO, 95% Neobee (Spectrum Chemical) (Allen et al., 2006). The second group (n=3) was injected i.p. with compound 2j at 50 mg/kg dissolved in sterile 5% DMSO, 95% Neobee. The third, vehicle control group (n=2) was injected i.p. with an equivalent volume of sterile 5% DMSO, 95% Neobee. All animals were injected between 11:00 a.m. and 12:00 p.m. Animals were sacrificed by CO2 after three weeks of injections. Blood was collected by cardiac puncture and standard blood count and chemistry was evaluated by the MUSC/VA Veterinary Diagnostic Laboratory (Charleston, S.C.). All animal and treatment protocols were in compliance with the Guide for the Care and Use of Laboratory Animals as adopted and promulgated by the National Institutes of Health (Institute of Laboratory Animal Resources, 1996).
Preliminary in vivo toxicity was assessed for compounds 2q and 2j in mice. […] Adult mice were injected intraperitoneally (i.p.) daily. […] After three weeks of chronic, high dose injections, animals were sacrificed and standard blood count and chemistry analyses performed.

HT-22 neuronal cells = assay: Respirometry (OCR, ECAR; Seahorse XF-96); format: cell-based, mouse; parameters: ECAR (glycolysis), difference from control: unit not given here; conditions: HT-22 cells, mean±SEM; for basal cellular respiration, difference in OCR from control: 1 h treatment, OCR as percentage of pre-treatment value; for basal mitochondrial respiration, difference from control: basal minus non-mitochondrial (rotenone); for ATP-linked respiration, difference from control: basal minus oligomycin
Experimental: Oxygen consumption rates (OCR) and extracellular acidification rates (ECAR) of HT-22 neuronal cells were performed on the XF-96 Extracellular Flux Analyzer (Seahorse Bioscience) using standard methods (Beeson et al., 2010). In brief, cells were cultured in 96 well Seahorse plates in DMEM high glucose media (Invitrogen) supplemented with 10% FBS, 10 mM HEPES, and 1% antibiotic-antimycotic (Invitrogen). The media was replaced with DMEM media supplemented with 25 mM glucose, 10 mM sodium pyruvate, 31 mM NaCl, and 2 mM glutamine at pH 7.4. Each of the four drug ports on the Seahorse sensor cartridge were filled with test compound (media only, 5 μM NQN-1, 10 μM VK3 or 12.5 μM MB), 10 μM oligomycin, 1 μM FCCP, and 5 μM rotenone, which were injected into each well at 20, 80, 110, and 135 min, respectively. The pmol/min OCR rate for each well (9-52 wells/group) was measured. Wells were excluded from the analysis if their OCR values surpassed the Tukey Outlier Rule. In order to standardize the OCR rates across wells, the average OCR value at 17 min (last time point prior to injection of the test compounds) for each experimental group was calculated, and set to 100. All OCR values are given as a percentage of this pre-treatment value. […]

[2] = Presence in mouse brain by LC-MS; format: in vivo; conditions: mice, i.p. daily for three weeks, brain 2 hours after final injection
Experimental: VK2 is synthesized in situ where it is needed. […] Utilizing small synthetic VK analog that can perform similarly to VK2 is of novelty for epileptic treatment. Mice were under I.P. daily injection of 2q for three weeks and their brains were harvested 2 hours after the final injection. The mouse brains were extracted with organic solvent. The presence and the level of 2q were determined using LC-MS techniques (FIG. 9). The presence of 2q was detected via mass spectrometry in the mice brain 2 hours after i.p. injections.

corneal kindled seizures = assay: Corneal kindled mouse model; format: in vivo; conditions: mice, 100 mg/kg i.p., 0.25 hrs
Experimental: Mouse studies were performed by NIH Anticonvulsant Screening Program at the National Institute of Neurological Disorders and Stroke (Stables and Kupferberg, 1997) according to the established NIH experimental procedures outlined below. Compounds were delivered into mice by i.p. injection at a dose of 100 mg/kg in sterile 5% DMSO, 95% Neobee (Josey et al., 2013). One of four methods for seizure induction was subsequently administered to mice at 0.25, 0.5, 1, 2 and 4 h after treatment with compound. (1) Subcutaneous PTZ seizure threshold test. PTZ was administered at a concentration of 85 mg/kg, into the loose fold of skin in the midline of the neck. […] (2) Maximal electroshock test. 60 Hz of 50 mA alternating current was delivered for 0.2 s by corneal electrodes. Mice were considered protected from seizures when the hindlimb tonic extensor was absent (White et al., 1995). (3) Minimal clonic seizure (6 Hz) test. 6 Hz of 32 mA or 44 mA alternating current was delivered for 3 s by corneal electrodes to elicit a psychomotor seizure. Mice were considered protected from seizures when the automatistic behaviors were absent (Barton et al., 2001). (4) Corneal kindled mouse model. […]

[3] = mouse blood chemistry, 50 mg/kg, 3 wks i.p., individual animals 1-3
[4] = mouse complete blood count, 50 mg/kg, 3 wks i.p., individual animals 1-3

With O=C1C=C(NCc2ccccc2)C(=O)c2ccccc21 [Compound 2j, 2-(benzylamino)naphthalene-1,4-dione] the “blood count and chemistry parameters versus vehicle” value [1] was “consistent with those of the vehicle control group”, the “weight loss, signs of pain or distress” value [1] was “no weight loss or outward signs of pain or distress” and the “basal cellular respiration, difference in OCR from control” value (HT-22 neuronal cells) was −4.14±2.9. For the same compound, the “basal mitochondrial respiration, difference from control” value (HT-22 neuronal cells) was 9.09±3.13, the “ATP-linked respiration, difference from control” value (HT-22 neuronal cells) was 6.58±3.28 and the “ECAR (glycolysis), difference from control” value (HT-22 neuronal cells) was 5.03±1.11.

For O=C1C=C(NCc2cccc(Cl)c2)C(=O)c2ccccc21 [Compound 2q, 2-((3-chlorobenzyl)amino)naphthalene-1,4-dione], the “presence in brain (LC-MS)” value [2] was “detected”, the “blood count and chemistry parameters versus vehicle” value [1] was “consistent with those of the vehicle control group” and the “weight loss, signs of pain or distress” value [1] was “no weight loss or outward signs of pain or distress”. The ALP [1, 3] was 72 U/L and 80 U/L and 60 U/L, the ALT [1, 3] was 34 U/L and 28 U/L and 33 U/L and the AST [1, 3] was 89 U/L and 71 U/L and 78 U/L. The Albumin [1, 3] was 3 g/dL and 3.2 g/dL and 2.8 g/dL, the BUN [1, 3] was 19 mg/dL (2×) and 20 mg/dL and the Creatinine [1, 3] was 0.16 mg/dL and 0.23 mg/dL and 0.18 mg/dL. For the same compound, the Glucose [1, 3] was 195 mg/dL (2×) and 205 mg/dL, the “Total Bilirubin” value [1, 3] was 0.20 mg/dL and the “Total Protein” value [1, 3] was 5.2 g/dL and 5.3 g/dL and 4.9 g/dL. The BA [1, 4] was 0.01 K/uL and 0.05 K/uL and 0.02 K/uL, the EO [1, 4] was 0.10 K/uL and 0.17 K/uL and 0.01 K/uL and the HCT [1, 4] was 51.1% and 53.2% and 51.3%. The Hb [1, 4] was 13.9 g/dL (2×) and 14.5 g/dL, the LY [1, 4] was 3.30 K/uL and 5.14 K/uL and 2.45 K/uL and the MCH [1, 4] was 14.8 pg (2×) and 15.3 pg. The MCHC [1, 4] was 27.2 g/dL and 27.3 g/dL and 27.1 g/dL, the MCV [1, 4] was 54.4 fL and 56.2 fL and 54.8 fL and the MO [1, 4] was 0.32 K/uL and 0.43 K/uL and 0.35 K/uL. For the same compound, the MPV [1, 4] was 4.5 fL and 4.6 fL and 4.4 fL, the NE [1, 4] was 5.55 K/uL and 3.03 K/uL and 3.78 K/uL and the PLT [1, 4] was 1139 K/uL and 946 K/uL and 1050 K/uL. The RBC [1, 4] was 9.39 M/uL and 9.46 M/uL and 9.37 M/uL, the RDW [1, 4] was 17.8% and 17.7% and 17.4% and the WBC [1, 4] was 9.28 K/uL and 8.82 K/uL and 6.62 K/uL.

With CC1=CC(=O)c2ccccc2C1=O [VK3, menadione, reference compound] the “basal cellular respiration, difference in OCR from control” value (HT-22 neuronal cells) was 21.57±0.97, the “basal mitochondrial respiration, difference from control” value (HT-22 neuronal cells) was “elevated but failed to reach statistical significance” and the “ATP-linked respiration, difference from control” value (HT-22 neuronal cells) was 12.2±3.12. For the same compound, the “ECAR (glycolysis), difference from control” value (HT-22 neuronal cells) was 1.89±0.93.

For C#CCNC1=CC(=O)c2ccccc2C1=O [Compound 2h, 2-(prop-2-yn-1-ylamino)naphthalene-1,4-dione], the Avg seizure score (corneal kindled seizures) was 3.75 and the “N/F (animals protected/animals tested)” value (corneal kindled seizures) was 2/4.
